# Results from patent US9428508B2, “2,4-diamino-6,7-dihydro-5H-pyrrolo[2,3]pyrimidine derivatives as FAK/Pyk2 inhibitors” (Centaurus BioPharma Co., Ltd., priority 2011, dated 2016).
# pIC50: −log10 of the molar value.
# Tests used:
# [1] = biological target: PYK2 (Homo sapiens (Human), UniProt Q14289); assay: Biochemical assay for PYK2 activity (LANCE TR-FRET, ULight-poly Glu,Ala,Tyr substrate); settings: GST-tagged PYK2, 40 min reaction
# Description: (§1) Biochemical Assay for FAK/Pyk2 Activity
# (§2) GST-tagged FAK was purchased from Invitrogen (PV3832). GST-tagged PYK2 was purchased from Invitrogen (PV4567). The activity of FAK/PYK2 was measured by monitoring the phosphorylation of a fluorophore labeled ULight-poly Glu, Ala, Tyr (1:1:1) peptide substrate from Perkin Elmer (TRF0101) in the presence of ATP. The phosphorylated tyrosine residue was recognized by a LANCE Europium chelate labeled anti-phosphotyrosine (PY20) antibody from Perkin Elmer (AD0066). This brought the fluorophore and europium chelate in close proximity ([…]) that upon excitation at 320 nm by an Envision (PerkinElmer), energy can be transferred from the donor Europium chelate to the acceptor fluorophore. […] The strength of the signal was, therefore, directly proportional to the FAK/PYK2 activity.
# (§3) To measure inhibitory activity of FAK/PYK2 inhibitors, compounds were first prepare as a 1 mM stock in 100% DMSO and 3-fold serial dilution was performed in a 96-well plate (Corning, 3897) to generate 12 different concentration of 100× stock. A 5 μl of 100× stock of each concentration was added to wells containing 95 μl of 1× reaction buffer (40 mM Tris, pH7.5, […], 1 mM DTT and 1 mM CHAPS) to generate 5× stock. Then 2 μl of 5× stock of each concentration was added to a 384 wells-OptiPlate (PerkinElmer, 6007299).
# (§4) For PYK2, 5 μl of 2 nM PYK2 and 1.5 μl of 666 nM ULight-poly Glu, Ala, Tyr (1:1:1) peptide substrate, prepared in above reaction buffer, were added to each well. The reaction was initiated by adding 1.5 μl of 46.6 μM ATP. The reaction was allowed to proceed for 40 min before being quenched with 5 μl of 40 mM EDTA stop buffer prepared in 1×LANCE detection buffer (PerkinElmer, CR97-100).
# (§5) Upon quenching of the reaction, 5 μl of 8 nM anti-phosphotyrosine antibody was added to each well and incubated for 60 minutes. The plate was measured using an Envision (PerkinElmer) based on the theory mentioned above.
# [2] = biological target: FAK (Homo sapiens (Human), UniProt Q05397); assay: Biochemical assay for FAK activity (LANCE TR-FRET, ULight-poly Glu,Ala,Tyr substrate); settings: GST-tagged FAK, 120 min reaction
# Sequence of FAK (Q05397 whole entry): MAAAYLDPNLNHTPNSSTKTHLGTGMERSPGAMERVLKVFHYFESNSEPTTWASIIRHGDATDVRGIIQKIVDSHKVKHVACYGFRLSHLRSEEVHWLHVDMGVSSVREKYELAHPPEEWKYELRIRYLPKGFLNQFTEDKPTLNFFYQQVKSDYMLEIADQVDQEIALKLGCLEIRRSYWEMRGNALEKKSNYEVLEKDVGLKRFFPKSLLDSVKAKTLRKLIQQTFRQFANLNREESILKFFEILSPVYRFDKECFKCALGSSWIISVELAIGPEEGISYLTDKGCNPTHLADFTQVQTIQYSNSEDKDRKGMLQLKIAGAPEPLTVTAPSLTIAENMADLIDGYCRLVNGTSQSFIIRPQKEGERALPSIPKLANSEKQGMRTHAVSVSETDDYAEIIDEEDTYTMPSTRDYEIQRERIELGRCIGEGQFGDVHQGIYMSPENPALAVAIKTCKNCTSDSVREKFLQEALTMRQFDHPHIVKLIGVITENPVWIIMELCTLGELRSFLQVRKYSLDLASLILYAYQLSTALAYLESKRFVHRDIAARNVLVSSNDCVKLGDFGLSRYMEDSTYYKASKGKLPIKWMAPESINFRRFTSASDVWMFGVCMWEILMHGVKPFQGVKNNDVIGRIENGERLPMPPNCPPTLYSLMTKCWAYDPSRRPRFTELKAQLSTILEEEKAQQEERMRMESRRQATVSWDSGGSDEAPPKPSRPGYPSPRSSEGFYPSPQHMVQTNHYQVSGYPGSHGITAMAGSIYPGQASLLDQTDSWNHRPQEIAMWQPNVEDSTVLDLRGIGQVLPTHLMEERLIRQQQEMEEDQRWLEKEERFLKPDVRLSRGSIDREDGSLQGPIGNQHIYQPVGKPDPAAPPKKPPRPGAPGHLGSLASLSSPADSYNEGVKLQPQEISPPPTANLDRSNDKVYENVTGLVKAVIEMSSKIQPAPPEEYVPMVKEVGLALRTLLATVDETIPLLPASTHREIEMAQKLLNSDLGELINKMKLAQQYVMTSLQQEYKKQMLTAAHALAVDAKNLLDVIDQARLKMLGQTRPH
# Description: as §1, §2, §3
# as §4, with “For FAK, 4” for “For PYK2, 5”, “of 2.5” for “of 2”, “nM FAK, 1 ul of 8 μg/μl BSA” for “nM PYK2”, “of 33.3” for “of 46.6”, “for 120” for “for 40”
# as §5
# Sequence of PYK2 (Q14289 whole entry): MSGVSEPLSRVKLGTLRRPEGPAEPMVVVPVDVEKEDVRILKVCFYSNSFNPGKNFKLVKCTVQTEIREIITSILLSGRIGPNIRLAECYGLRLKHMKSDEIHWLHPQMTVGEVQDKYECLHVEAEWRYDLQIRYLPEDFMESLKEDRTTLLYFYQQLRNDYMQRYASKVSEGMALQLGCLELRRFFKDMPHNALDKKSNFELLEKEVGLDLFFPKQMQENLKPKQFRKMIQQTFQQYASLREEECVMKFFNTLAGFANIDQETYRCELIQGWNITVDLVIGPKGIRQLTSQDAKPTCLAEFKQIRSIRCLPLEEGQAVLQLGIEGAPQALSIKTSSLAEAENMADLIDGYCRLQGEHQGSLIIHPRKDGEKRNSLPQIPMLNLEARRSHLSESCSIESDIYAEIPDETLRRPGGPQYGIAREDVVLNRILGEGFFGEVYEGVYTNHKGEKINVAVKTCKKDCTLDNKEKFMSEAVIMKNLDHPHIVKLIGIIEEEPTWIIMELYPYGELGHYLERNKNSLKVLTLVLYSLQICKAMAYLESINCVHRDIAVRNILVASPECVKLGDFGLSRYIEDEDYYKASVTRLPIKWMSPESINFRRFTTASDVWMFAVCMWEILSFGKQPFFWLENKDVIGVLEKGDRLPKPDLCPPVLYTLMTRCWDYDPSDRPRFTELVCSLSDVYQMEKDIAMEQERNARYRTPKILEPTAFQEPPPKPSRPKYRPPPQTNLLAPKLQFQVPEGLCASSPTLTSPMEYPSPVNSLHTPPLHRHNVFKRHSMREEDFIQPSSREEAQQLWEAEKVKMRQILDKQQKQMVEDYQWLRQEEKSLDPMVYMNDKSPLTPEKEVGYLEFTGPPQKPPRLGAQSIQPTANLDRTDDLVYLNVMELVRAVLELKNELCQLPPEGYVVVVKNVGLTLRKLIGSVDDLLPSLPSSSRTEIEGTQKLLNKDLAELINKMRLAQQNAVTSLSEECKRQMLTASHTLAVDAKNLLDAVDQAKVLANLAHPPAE
Structure (SMILES),pIC50 [1],pIC50 [2]
"COc1cc(N2CCOCC2)ccc1Nc1nc2c(c(Nc3ccccc3S(=O)(=O)Nc3ccccc3)n1)CCN2 [Example 51, 2-(2-(2-methoxy-4-morpholinophenylamino)-6,7-dihydro-5H-pyrrolo[2,3-d]pyrimidin-4-ylamino)-N-phenylbenzenesulfonamide]",> 6.30,> 6.70
"COc1cc(N2CCOCC2)ccc1Nc1nc2c(c(Nc3ccc(F)c(F)c3)n1)C(C)(C)CN2 [Example 125, N^4-(3,4-difluorophenyl)-N^2-(2-methoxy-4-morpholinophenyl)-5,5-dimethyl-6,7-dihydro-5H-pyrrolo[2,3-d]pyrimidine-2,4-diamine]",< 6.00,> 6.00
"CCN1C(=O)CCCc2c1ccc(Nc1nc3c(c(Nc4ccccc4C(=O)NC)n1)CCN3)c2OC [Example 17, 2-(2-(1-ethyl-6-methoxy-2-oxo-2,3,4,5-tetrahydro-1H-benzo[b]azepin-7-ylamino)-6,7-dihydro-5H-pyrrolo[2,3-d]pyrimidin-4-ylamino)-N-methylbenzamide]",> 6.70,> 6.00
"CNC(=O)c1ccccc1Nc1nc(Nc2cc(OC)c(OC)c(OC)c2)nc2c1C(C)(C)CN2 [Example 130, 2-(5,5-dimethyl-2-(3,4,5-trimethoxyphenylamino)-6,7-dihydro-5H-pyrrolo[2,3-d]pyrimidin-4-ylamino)-N-methylbenzamide]",> 6.70,> 6.70
"COc1cc(N2CCOCC2)ccc1Nc1nc2c(c(Nc3ccccc3S(=O)(=O)Nc3ccccc3)n1)C1(CC1)CN2 [Example 143, 2-(2′-(2-methoxy-4-morpholinophenylamino)-6′,7′-dihydrospiro[cyclopropane-1,5′-pyrrolo[2,3-d]pyrimidine]-4′-ylamino)-N-phenylbenzenesulfonamide]",> 6.70,> 7.00
"CNC(=O)c1ccc2c(c1Nc1nc(Nc3ccc(N4CCOCC4)cc3OC)nc3c1C(C)(C)CN3)OCO2 [Example 126, 4-(2-(2-methoxy-4-morpholinophenylamino)-5,5-dimethyl-6,7-dihydro-5H-pyrrolo[2,3-d]pyrimidin-4-ylamino)-N-methylbenzo[d][1,3]dioxole-5-carboxamide]",< 6.00,> 6.00
"CNC(=O)c1ccccc1Nc1nc(Nc2cccc3c2OCCO3)nc2c1CCN2 [Example 15, 2-(2-(2,3-dihydrobenzo[b][1,4]dioxin-5-ylamino)-6,7-dihydro-5H-pyrrolo[2,3-d]pyrimidin-4-ylamino)-N-methylbenzamide]",> 6.30,> 6.30
"COc1cc(N2CCOCC2)ccc1Nc1nc2c(c(Nc3cccc(C)n3)n1)C(C)(C)CN2 [Example 123, N^2-(2-methoxy-4-morpholinophenyl)-5,5-dimethyl-N^4-(6-methylpyridin-2-yl)-6,7-dihydro-5H-pyrrolo[2,3-d]pyrimidine-2,4-diamine]",> 6.30,> 6.70
"COc1cc(N2CCOCC2)ccc1Nc1nc2c(c(Nc3ccccc3C(=O)N3CCCC3)n1)CCN2 [Example 3, (2-(2-(2-methoxy-4-morpholinophenylamino)-6,7-dihydro-5H-pyrrolo[2,3-d]pyrimidin-4-ylamino)phenyl)(pyrrolidin-1-yl)methanone]",< 6.00,< 6.00
"CC(C)NS(=O)(=O)c1ccccc1Nc1nc(Nc2ccc(N3CCOCC3)cc2C(F)(F)F)nc2c1CCN2 [Example 60, N-isopropyl-2-(2-(4-morpholino-2-(trifluoromethyl)phenylamino)-6,7-dihydro-5H-pyrrolo[2,3-d]pyrimidin-4-ylamino)benzenesulfonamide]",< 6.00,> 6.30

# The next lines start with the values.
pIC50 [1],pIC50 [2],Structure (SMILES)
> 6.70,> 6.70,"CNC(=O)c1ccccc1Nc1nc(Nc2ccc3c(ccn3CCCN3CCOCC3)c2)nc2c1C(C)(C)CN2 [Example 134, 2-(5,5-dimethyl-2-(1-(3-morpholinopropyl)-1H-indol-5-ylamino)-6,7-dihydro-5H-pyrrolo[2,3-d]pyrimidin-4-ylamino)-N-methylbenzamide]"
> 7.70,> 7.70,"CCCNS(=O)(=O)c1ccccc1Nc1nc(Nc2ccc(N3CCOCC3)cc2OC)nc2c1CCN2 [Example 5, 2-(2-(2-methoxy-4-morpholinophenylamino)-6,7-dihydro-5H-pyrrolo[2,3-d]pyrimidin-4-ylamino)-N-propylbenzenesulfonamide]"
> 7.30,> 7.30,"COc1cc(N2CCOCC2)ccc1Nc1nc2c(c(Nc3ccccc3NC(C)=O)n1)C1(CC1)CN2 [Example 155, N-(2-(2′-(2-methoxy-4-morpholinophenylamino)-6′,7′-dihydrospiro[cyclopropane-1,5′-pyrrolo[2,3-d]pyrimidine]-4′-ylamino)phenyl)acetamide]"
> 7.70,> 7.70,"CNC(=O)c1ccccc1Nc1nc(Nc2cccc3c2OCCO3)nc2c1C(C)(C)CN2 [Example 128, 2-(2-(2,3-dihydrobenzo[b][1,4]dioxin-5-ylamino)-5,5-dimethyl-6,7-dihydro-5H-pyrrolo[2,3-d]pyrimidin-4-ylamino)-N-methylbenzamide]"
> 7.30,> 7.00,"COc1cc(N2CCC(N3CCNCC3)CC2)ccc1Nc1nc2c(c(Nc3ccccc3P(C)(C)=O)n1)CCN2 [Example 163, N^4-(2-(dimethylphosphoryl)phenyl)-N^2-(2-methoxy-4-(4-(piperazin-1-yl)piperidin-1-yl)phenyl)-6,7-dihydro-5H-pyrrolo[2,3-d]pyrimidine-2,4-diamine]"
> 7.00,> 7.00,"COc1cc(N2CCOCC2)ccc1Nc1nc2c(c(Nc3cccc(C)n3)n1)CCN2 [Example 12, N^2-(2-methoxy-4-morpholinophenyl)-N^4-(6-methylpyridin-2-yl)-6,7-dihydro-5H-pyrrolo[2,3-d]pyrimidine-2,4-diamine]"
> 7.70,> 7.70,"CC(C)NS(=O)(=O)c1ccccc1Nc1nc(Nc2ccc(CO)cc2)nc2c1CCN2 [Example 54, 2-(2-(4-(hydroxymethyl)phenylamino)-6,7-dihydro-5H-pyrrolo[2,3-d]pyrimidin-4-ylamino)-N-isopropylbenzenesulfonamide]"
> 7.70,> 7.70,"CNS(=O)(=O)c1ccc(Nc2nc3c(c(Nc4ccccc4S(=O)(=O)NC(C)C)n2)CCN3)cc1 [Example 64, N-isopropyl-2-(2-(4-(N-methylsulfamoyl)phenylamino)-6,7-dihydro-5H-pyrrolo[2,3-d]pyrimidin-4-ylamino)benzenesulfonamide]"
> 7.70,> 7.52,"COc1cc(N2CCOCC2)ccc1Nc1nc2c(c(Nc3ccccc3N(C)S(C)(=O)=O)n1)C(C)CN2 (racemic) [Example 31, (±)-N-(2-(2-(2-methoxy-4-morpholinophenylamino)-5-methyl-6,7-dihydro-5H-pyrrolo[2,3-d]pyrimidin-4-ylamino)phenyl)-N-methylmethanesulfonamide]"
> 7.70,> 7.70,"COc1cc(N2CCOCC2)ccc1Nc1nc2c(c(Nc3ccccc3S(=O)(=O)NC(C)C)n1)C(C)(C)CN2 [Example 105, N-isopropyl-2-(2-(2-methoxy-4-morpholinophenylamino)-5,5-dimethyl-6,7-dihydro-5H-pyrrolo[2,3-d]pyrimidin-4-ylamino)benzenesulfonamide]"
> 7.70,> 7.70,"COc1cc(NCCN2CCOCC2)ccc1Nc1nc2c(c(Nc3ccccc3S(=O)(=O)NC(C)C)n1)CCN2 [Example 85, N-isopropyl-2-(2-(2-methoxy-4-(2-morpholinoethylamino)phenylamino)-6,7-dihydro-5H-pyrrolo[2,3-d]pyrimidin-4-ylamino)benzenesulfonamide]"
> 7.70,> 7.70,"COc1cc(N2CCOCC2)ccc1Nc1nc2c(c(Nc3ccccc3S(=O)(=O)NCC3CC3)n1)C1(CC1)CN2 [Example 140, N-(cyclopropylmethyl)-2-(2′-(2-methoxy-4-morpholinophenylamino)-6′,7′-dihydrospiro[cyclopropane-1,5′-pyrrolo[2,3-d]pyrimidine]-4′-ylamino)benzenesulfonamide]"
> 7.70,> 7.70,"C=CCNS(=O)(=O)c1ccccc1Nc1nc(Nc2ccc(N3CCOCC3)cc2OC)nc2c1C1(CC1)CN2 [Example 144, N-allyl-2-(2′-(2-methoxy-4-morpholinophenylamino)-6′,7′-dihydrospiro[cyclopropane-1,5′-Pyrrolo[2,3-d]pyrimidine]-4′-ylamino)benzenesulfonamide]"
